Each structure is given as a SMILES string.

The target of this experiment is T1, STK22D (TSSK1) (Homo sapiens, UniProt Q9BXA7).
T1 construct: purchased Thermo Fisher Scientific (Life Technologies) SelectScreen
The experiment is described as follows: SelectScreen Z'LYTE. Type of experiment: biochemical. The procedure, abridged:
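Percent values come from Thermo SelectScreen profiling of NU5455, combining activity and binding assays. CSF1R was run in Z'LYTE format at Km app ATP, and CAMK1 in Adapta format with ATP listed at 10.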

T1 sequence (Q9BXA7 whole entry): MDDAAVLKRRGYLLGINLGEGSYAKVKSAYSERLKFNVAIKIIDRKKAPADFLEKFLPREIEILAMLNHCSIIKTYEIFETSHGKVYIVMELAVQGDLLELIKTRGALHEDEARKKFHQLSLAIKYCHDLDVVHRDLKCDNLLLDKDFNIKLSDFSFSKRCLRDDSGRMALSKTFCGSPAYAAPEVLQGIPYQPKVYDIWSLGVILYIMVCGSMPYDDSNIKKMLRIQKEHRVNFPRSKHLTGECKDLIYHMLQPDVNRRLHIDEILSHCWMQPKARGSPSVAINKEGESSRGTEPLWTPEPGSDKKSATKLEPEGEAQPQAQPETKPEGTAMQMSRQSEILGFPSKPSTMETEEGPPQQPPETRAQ

`CN(C(=O)CN1CCOCC1)c1ccc2sc3c(-c4cccc5c(=O)cc(N6CC7CCC(C6)O7)oc45)cccc3c2c1` [NU5455]: testing at 1 µM gave an inhibition of 4.2%.

(Values after PMC6934184, “Selective DNA-PKcs inhibition extends the therapeutic index of localized radiotherapy and chemotherapy” (The Journal of Clinical Investigation, 2019).)
